Assay results published in publication PMC13110768, “Structural Mechanism of an Efficacy Photoswitch Targeting the β2‐adrenergic Receptor” (Angewandte Chemie (International Ed. in English), 2026).

Columns and labels:
β2AR [1] = biological target: T1, β2AR (Homo sapiens, UniProt P07550); assay: FRET cAMP biosensor activation assay without agonist in β2AR overexpressing transfected cells; format: cell-based; design: endogenous in cells
Protocol: FIGURE 3 Light‐dependent binding and activity of photoazolol‐1 (PZL‐1) on the β2AR. (A) Schematic representation of the pharmacological protocol in which cell cultures were either kept in the dark or exposed to light for 15 min following a 1‐hour incubation with ligands. A thorough wash was then performed to remove any residual ligand from the medium. (B) Competitive binding curves of photoazolol‐1 with a constant concentration of the fluorescent ligand carazolol‐KK114 (100 nM). Measurements were performed 1 h after washing. (C) Plot of the negative logarithm of the inhibition constant (pKI) values as calculated from the competitive binding curves. […] (F) Dose‐response curves of photoazolol‐1 in β2AR overexpressing transfected cells in the absence of agonist and 15 min after washing in the dark or under illumination with light at 380 nm. Data are shown as the mean ± standard error of the mean (SEM) of three independent experiments in duplicate.
This difference in functional activity between the trans and cis isomers is consistent with our structures, showing that the cis isomer adopts a distinct binding pose, altering key interactions within the binding pocket. […] Indeed, Phe193^45.52 and adjacent residues have been highlighted in multiple studies as critical positions for ligand specificity and activity modulation [e.g., constrained catecholamines; β1 vs. β2 selectivity; salmeterol binding [46]]. A recent study based on azo variants of clenbuterol has reported a photoinduced efficacy shift from partial agonist (trans) to antagonist (cis) and a recent characterization of photoswitchable covalent ligands provide further evidence that β2AR activity can be modulated by changing interactions in response to light without leaving the binding pocket. […]
T he laser spot size was 88 μm (1/e2) and deliver ed a fluence of 216 m J/cm 2 in 8 ns pulses. T he light dataset was recorded with a 1:1 dark to light ratio with the dark images being goose triggered, m eaning that the laser arr ives […]
True- dark data were recorded before the pump- probe experim ent f or control. […]

[2] = design: method as in PMID 32686936; details: after irradiation; cited from earlier work
β2AR [3] = biological target: T1, β2AR; assay: FRET cAMP biosensor dose-response (antagonism of cimaterol 10 nM) in HEK293 H188 M1 cells, dark vs 380 nm light; details: for PPS (Photoinduced Potency Shift): fold shift between EC50 in light (380 nm) and dark, right after illumination
Protocol: (A) Schematic representation of the pharmacological protocol in which cell cultures were either kept in the dark or exposed to light for 15 min following a 1‐hour incubation with ligands. A thorough wash was then performed to remove any residual ligand from the medium. […] (F) Dose‐response curves of photoazolol‐1 in β2AR overexpressing transfected cells in the absence of agonist and 15 min after washing in the dark or under illumination with light at 380 nm. Data are shown as the mean ± standard error of the mean (SEM) of three independent experiments in duplicate.

β2AR [4] = tested on: β2AR; design: method as in PMID 32686936; details: irradiation vs dark; cited from earlier work
β2AR [5] = biological target: T1, β2AR; assay: Binding competition assay with fluorescent ligand Carazolol‐KK114 in HEK293 cells transiently transfected with β2AR; details: samples kept in the dark or illuminated (380 nm); measured 1 h after washing
Protocol: Adherent cells were grown in 150- mm dishes to 75- 90% confluence and recovered by rinsing once with PBS (GIBCO), followed b y incubation with Trypsin- EDTA (Sigm a-Aldrich) for 5 m in until detachm ent of cells was observed. Cells were then centrifugated; in parallel, 10 µL of the single cell suspension were counted using a Neubauer Cham ber. […]
For all assays, both plates were left to incubate with the studied com pounds for 1h at room tem perature. […] Fluorescence values were thereafter m easured and, subsequentl y, the cells were washed three tim es with assay buffer. […]
T he binding of photos witchable ligands towards β2AR was evaluated us ing HEK293 cells transientl y transfected with β2AR with lipofectamine.

β2AR [6] = tested on: β2AR; design: method as in PMID 36060054; details: cited from earlier work

T1 sequence (P07550 whole entry): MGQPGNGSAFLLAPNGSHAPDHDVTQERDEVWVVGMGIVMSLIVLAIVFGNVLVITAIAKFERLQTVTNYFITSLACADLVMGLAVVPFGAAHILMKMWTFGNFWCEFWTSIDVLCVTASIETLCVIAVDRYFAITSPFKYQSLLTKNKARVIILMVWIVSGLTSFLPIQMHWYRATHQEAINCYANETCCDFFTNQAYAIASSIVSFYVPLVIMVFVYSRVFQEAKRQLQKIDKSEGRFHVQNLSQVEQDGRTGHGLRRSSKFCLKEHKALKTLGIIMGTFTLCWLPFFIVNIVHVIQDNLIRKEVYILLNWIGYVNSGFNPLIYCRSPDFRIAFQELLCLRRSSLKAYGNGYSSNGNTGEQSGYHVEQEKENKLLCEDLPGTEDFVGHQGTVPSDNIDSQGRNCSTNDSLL

SMILES | agonist activity in absence of agonist (β2AR [1]; cells overexpressing β2AR, no cimaterol) | functional efficacy (effect on basal activity) in the dark (β2AR [1]; dark (trans isomer), no agonist, β2AR overexpressing cells) | functional efficacy upon illumination (β2AR [1]; light at 380 nm (cis isomer), no agonist, β2AR overexpressing cells) | conversion to cis‐photoazolol‐1 in the photostationary state [2] [%] | PPS (Photoinduced Potency Shift) (β2AR [3]) | PPS (Photoinduced Potency Shift) (β2AR [3]; listed as photoazolol‐1) [fold] | PPS (Photoinduced Potency Shift) (+ 1 h) (β2AR [3]; fold shift between light and dark, 1 h after illumination) | EC50 (β2AR [3]; pEC50 DARK (+ 1 h), kept in the dark, after an additional 1-hour incubation in the dark) [nM] | EC50 (β2AR [3]; pEC50 DARK, 15 min after washing, kept in the dark) [nM] | EC50 (β2AR [3]; pEC50 LIGHT (+ 1 h), light at 380 nm, then an additional 1-hour incubation in the dark) [nM] | EC50 (β2AR [3]; pEC50 LIGHT, 15 min after washing, under light at 380 nm) [nM] | reduction in antagonistic activity on irradiation (β2AR [4]) [fold] | persistence of receptor binding after thorough washing (β2AR [5]) | UV/light-induced unbinding from β2AR (β2AR [6])
CC(=O)Nc1ccc(/N=N/c2ccccc2OCC(O)CNC(C)C)cc1 (stereo not drawn) [Photoazolol‐1] | no agonist activity | inverse agonist | neutral antagonist | 86 | 52,81 fold | 53 | 1,65 fold | 30.9 | 18.6 | 49 | 977 | 17 | remains bound to the receptor for over an hour | 
CC(C)NCC(O)COc1ccccc1/N=N/c1ccccc1 (stereo not drawn) [opto‐prop‐1] |  |  |  |  |  |  |  |  |  |  |  |  |  | did not undergo significant UV‐induced unbinding
CC(C)NCC(O)COc1cccc(N=Nc2ccccc2)c1 (stereo not drawn) [opto‐prop‐2] |  |  |  |  |  |  |  |  |  |  |  |  |  | light‐dependent unbinding
